# Test results from patent US7691901B2, “Carotenoid analogs or derivatives for the inhibition and amelioration of inflammation” (Cardax Pharmaceuticals Inc., priority 2004, dated 2010).
# Experiments:
# [1] = type: physicochemical
# Method: Determination of aqueous solubility/dispersibility. 30.13 mg of 3 was added to 1 mL of USP-purified water. The sample was rotated for 2 hours, then centrifuged for 5 minutes. […] A 125-μL aliquot of the solution was then diluted to 25 mL. The sample was analyzed by UV/Vis spectroscopy at 436 nm, and the absorbance was compared to a standard curve compiled from 4 standards of known concentration.
# The sample was rotated for 2 hours, then centrifuged for 5 minutes. […] A 125-μL aliquot of the solution was then diluted to 25 mL. The sample was analyzed by UV/Vis spectroscopy at 411 nm, and the absorbance was compared to a standard curve compiled from 4 standards of known concentration.
# superoxide anion = experiment: Direct superoxide anion scavenging by EPR spectroscopy (DEPMPO spin-trap) in PMA-stimulated isolated human neutrophils; type: cell-based; settings: aqueous phase; statistical mixture of stereoisomers and individual stereoisomers
# Method: Leukocyte Isolation and Preparation. Human polymorphonuclear leukocytes (PMNs) were isolated from freshly sampled venous blood of a single volunteer by Percoll density gradient centrifugation as described previously. Briefly, each 10 mL of whole blood was mixed with 0.8 mL of 0.1 M EDTA and 25 mL of saline. The diluted blood was then layered over 9 mL of Percoll at a specific density of 1.080 g/mL. After centrifugation at 400×g for 20 min at 20° C., the plasma, mononuclear cell, and Percoll layers were removed. Erythrocytes were subsequently lysed by addition of 18 mL of ice-cold water for 30 s, followed by 2 mL of 10× PIPES buffer (25 mM PIPES, 110 mM NaCl, and 5 mM KCl, titrated to pH 7.4 with NaOH). Cells were then pelleted at 4° C., the supernatant was decanted, and the procedure was repeated. After the second hypotonic cell lysis, cells were washed twice with PAG buffer [PIPES buffer containing 0.003% human serum albumin (HSA) and 0.1% glucose]. Afterward, PMNs were counted by light microscopy on a hemocytometer. The isolation yielded PMNs with a purity of >95%. The final pellet was then suspended in PAG-CM buffer (PAG buffer with 1 mM CaCl2 and 1 mM MgCl2). EPR Measurements. All EPR measurements were performed using a Bruker ER 300 EPR spectrometer operating at X-band with a TM110 cavity as previously described. The microwave frequency was measured with a Model 575 microwave counter (EIP Microwave, Inc., San Jose, Calif.). To measure superoxide anion (O2) generation from phorbol-ester (PMA)-stimulated PMNs, EPR spin-trapping studies were performed using the spin trap DEPMPO (Oxis, Portland, Oreg.) at 10 mM. 1×10^6 PMNs were stimulated with PMA (1 ng/mL) and loaded into capillary tubes for EPR measurements. To determine the radical scavenging ability of 3 and 9 in aqueous and ethanolic formulations, PMNs were pre-incubated for 5 minutes with test compound, followed by PMA stimulation.
# Instrument settings used in the spin-trapping experiments were as follows: modulation amplitude, 0.32 G; time constant, 0.16 s; scan time, 60 s; modulation frequency, 100 kHz; microwave power, 20 milliwatts; and microwave frequency, 9.76 GHz. The samples were placed in a quartz EPR flat cell, and spectra were recorded. The component signals in the spectra were identified and quantified as reported previously.
# [2] = test system: differential cell counts (macrophages, monocytes, eosinophils, lymphocytes, neutrophils, and erythrocytes); experiment: Thioglycollate/Zymosan-induced peritonitis model: differential cell counts of peritoneal lavage cells; type: in vivo, mice; set-up: RBC, MEAN / RBC, MEDIAN / WBC, MEAN / WBC, MEDIAN: unit not given here
# Method: Thioglycollate/Zymosan—Induced Peritonitis Model: Wild-type mice were administered either 500 mg/kg body weight of disodium disuccinate astaxanthin (ddAst/Cardax™) in an oil emulsion vehicle, or normal saline (NS) as a negative control, by oral gavage at 24 hours intervals beginning 7 days prior to the induction of peritonitis. Peritonitis was induced experimentally as follows: mice were injected intraperitoneally with 1 ml of 4% by weight thioglycollate (Tg) broth, to induce the recruitment of proinflammatory cells to the peritoneum. Either 16 hours or 72 hours after recruitment, approximately half of the mice were injected intraperitoneally with 250 mg/kg body weight of zymosan (Z) for a further 4 hours. The mice not receiving zymosan underwent no further treatment. Peritoneal lavage was performed in control animals or animals treated with (ddAst) 16 hours post Tg injection, or 20 h following the combination of both Tg injection (16 hours) followed by Z injection (4 hours), as indicated (Tg/Z). Peritoneal lavages were performed with phosphate-buffered saline containing antioxidant (0.1 mM butylated hydroxytoluene (BHT)) and 2 mM of the metal chelator diethylenetriamine pentaacetic acid (DTPA) according to established practices in the art. The lavage suspensions were transferred to screw-capped tubes under an argon atmosphere, and immediately centrifuged at 1000 rpm in a table top microcentrifuge for 10 min at 4° C. to remove whole cells and debris. All analyses of lipid peroxidation products was performed on cell-free lavage supernatants. Cell pellets were resuspended in phosphate-buffered saline containing 0.1 mM BHT and 0.1 mM DTPA, and differential cell counts (macrophages, monocytes, eosinophils, lymphocytes, neutrophils, and erythrocytes) were performed on cytospun preparations of isolated cells according to established procedures in the art.
# [3] = Single- and multiple-dose pharmacokinetics of an oral preparation in a murine model; type: in vivo; settings: oral preparation of the racemic compound in lipophilic emulsion
# [4] = test system: ischemia-reperfusion injury; experiment: Ischemia-reperfusion injury, experimental infarction model; type: in vivo, rodents; settings: intravenous pretreatment
structure (smiles),measurement,setting,value
"CC1=C(/C=C/C(C)=C/C=C/C(C)=C/C=C/C=C(C)/C=C/C=C(C)/C=C/C2=C(C)C(=O)C(OC(=O)CCC(=O)O)CC2(C)C)C(C)(C)CC(OC(=O)CCC(=O)O)C1=O (stereo not drawn) [Cardax, disodium disuccinate astaxanthin]",water dispersibility,[1],8.64 mg/mL
same,direct scavenging of superoxide anion,superoxide anion,potent direct scavengers of superoxide anion in the aqueous phase
same,"ALV MAC %, MEAN",[2]; 16 Hour Thioglycollate,3.000%
same,"EOSIN %, MEAN",[2]; 16 Hour Thioglycollate,6.000%
same,"LYMPHS %, MEAN",[2]; 16 Hour Thioglycollate,23.000%
same,"MONOS %, MEAN",[2]; 16 Hour Thioglycollate,39.667%
same,"NEUTRO %, MEAN",[2]; 16 Hour Thioglycollate,25.333%
same,"OTHER %, MEAN",[2]; 16 Hour Thioglycollate,2.667%
same,"RBC, MEAN",[2]; 16 Hour Thioglycollate,449.33
same,"REACTIVE %, MEAN",[2]; 16 Hour Thioglycollate,0.333%
same,"RES EP %, MEAN",[2]; 16 Hour Thioglycollate,0.000%
same,"WBC, MEAN",[2]; 16 Hour Thioglycollate,528.67
same,"ALV MAC %, MEDIAN",[2]; 16 Hour Thioglycollate,3.000%
same,"EOSIN %, MEDIAN",[2]; 16 Hour Thioglycollate,4.000%
same,"LYMPHS %, MEDIAN",[2]; 16 Hour Thioglycollate,19.000%
same,"MONOS %, MEDIAN",[2]; 16 Hour Thioglycollate,35.000%
same,"NEUTRO %, MEDIAN",[2]; 16 Hour Thioglycollate,21.000%
same,"OTHER %, MEDIAN",[2]; 16 Hour Thioglycollate,2.000%
same,"RBC, MEDIAN",[2]; 16 Hour Thioglycollate,350.00
same,"REACTIVE %, MEDIAN",[2]; 16 Hour Thioglycollate,0.000%
same,"RES EP %, MEDIAN",[2]; 16 Hour Thioglycollate,0.000%
same,"WBC, MEDIAN",[2]; 16 Hour Thioglycollate,475.00
same,"ALV MAC %, MEAN",[2]; 72 Hour Thioglycollate,15.667%
same,"EOSIN %, MEAN",[2]; 72 Hour Thioglycollate,1.667%
same,"LYMPHS %, MEAN",[2]; 72 Hour Thioglycollate,53.000%
same,"MONOS %, MEAN",[2]; 72 Hour Thioglycollate,27.000%
same,"NEUTRO %, MEAN",[2]; 72 Hour Thioglycollate,0.000%
same,"OTHER %, MEAN",[2]; 72 Hour Thioglycollate,2.333%
same,"RBC, MEAN",[2]; 72 Hour Thioglycollate,90.333
same,"REACTIVE %, MEAN",[2]; 72 Hour Thioglycollate,0.333%
same,"RES EP %, MEAN",[2]; 72 Hour Thioglycollate,0.000%
same,"WBC, MEAN",[2]; 72 Hour Thioglycollate,435.33
same,"ALV MAC %, MEDIAN",[2]; 72 Hour Thioglycollate,15.000%
same,"EOSIN %, MEDIAN",[2]; 72 Hour Thioglycollate,1.000%
same,"LYMPHS %, MEDIAN",[2]; 72 Hour Thioglycollate,55.000%
same,"MONOS %, MEDIAN",[2]; 72 Hour Thioglycollate,32.000%
same,"NEUTRO %, MEDIAN",[2]; 72 Hour Thioglycollate,0.000%
same,"OTHER %, MEDIAN",[2]; 72 Hour Thioglycollate,2.000%
same,"RBC, MEDIAN",[2]; 72 Hour Thioglycollate,69.000
same,"REACTIVE %, MEDIAN",[2]; 72 Hour Thioglycollate,0.000%
same,"RES EP %, MEDIAN",[2]; 72 Hour Thioglycollate,0.000%
same,"WBC, MEDIAN",[2]; 72 Hour Thioglycollate,448.00
same,plasma and tissue levels of nonesterified astaxanthin,[3],significant plasma and tissue levels of nonesterified astaxanthin were achieved
same,cardioprotection,[4],significantly cardioprotective
same,myocardial salvage,[4]; highest dose tested,up to 56%
